Laboratory results from ChEMBL document CHEMBL3885861, “Open TG-GATES”.

Organism: Rattus norvegicus
Test: Open TG-GATES - Regimen: Single
Type: toxicity, organism-based, Sprague-Dawley
Design: regimen Single, gender Male, age 6 weeks
Conditions: in vivo, po, 3 mg/kg, route gavage, dose level Low; for APTT / Bas / Eos / Fbg / Hb / Ht / Lym / MCH / MCHC / MCV / Mono / Neu / PT / Plat / RBC / Ret / WBC: tissue Blood; for KIDNEY_L / KIDNEY_R / KIDNEY_TOTAL: tissue Kidney; for LIVER: tissue Liver; for A/G / ALP / ALT / AST / BUN / CRE / Ca / Cl / DBIL / GLC / IP / K / LDH / Na / PL / RALB / TBIL / TC / TG / TP / gamma-GTP: tissue Plasma

## Nc1c2c(nc3ccccc13)CCCC2 [TACRINE]
3 h
  TERMINAL_BW: 208.2 g
  APTT: 21.3 s
  Bas: 0%
  Eos: 0.4%
  Fbg: 283.8 mg/dL
  Hb: 13.4 g/dL
  Ht: 39%
  Lym: 77%
  MCH: 21.5 pg
  MCHC: 34.4%
  MCV: 62.5 fL
  Mono: 2.2%
  Neu: 19.4%
  PT: 16.1 s
  Plat: 120.6 x10_4/uL
  RBC: 623.8 x10_4/ul
  Ret: 8.2%
  WBC: 90.3 x10_2/uL
  KIDNEY_L: 0.9 g
  KIDNEY_R: 0.9 g
  KIDNEY_TOTAL: 1.9 g
  LIVER: 9.4 g
  A/G: 1.3
  ALP: 1562.6 IU/L
  ALT: 45.6 IU/L
  AST: 79.6 IU/L
  BUN: 13.4 mg/dL
  CRE: 0.2 mg/dL
  Ca: 10.7 mg/dL
  Cl: 107 meq/L
  DBIL: 0.002 mg/dL
  GLC: 184.2 mg/dL
  IP: 8 mg/dL
  K: 4 meq/L
  LDH: 251.6 IU/L
  Na: 142.6 meq/L
  PL: 139.2 mg/dL
  RALB: 3 g/dL
  TBIL: 0.024 mg/dL
  TC: 75 mg/dL
  TG: 64 mg/dL
  TP: 5.4 g/dL
  gamma-GTP: 1 IU/L
6 h
  TERMINAL_BW: 200.8 g
  APTT: 20.8 s
  Bas: 0%
  Eos: 0.8%
  Fbg: 312.8 mg/dL
  Hb: 13.6 g/dL
  Ht: 39.2%
  Lym: 78.8%
  MCH: 21.2 pg
  MCHC: 34.6%
  MCV: 61.2 fL
  Mono: 2.4%
  Neu: 17.2%
  PT: 15.6 s
  Plat: 125.6 x10_4/uL
  RBC: 641 x10_4/ul
  Ret: 7.7%
  WBC: 102.1 x10_2/uL
  KIDNEY_L: 0.9 g
  KIDNEY_R: 0.9 g
  KIDNEY_TOTAL: 1.8 g
  LIVER: 8.7 g
  A/G: 1.2
  ALP: 1243.4 IU/L
  ALT: 34.8 IU/L
  AST: 67.2 IU/L
  BUN: 11.4 mg/dL
  CRE: 0.2 mg/dL
  Ca: 10.6 mg/dL
  Cl: 106.8 meq/L
  DBIL: 0.002 mg/dL
  GLC: 175.6 mg/dL
  IP: 9 mg/dL
  K: 4.4 meq/L
  LDH: 200 IU/L
  Na: 142 meq/L
  PL: 148 mg/dL
  RALB: 3.1 g/dL
  TBIL: 0.024 mg/dL
  TC: 76 mg/dL
  TG: 89.6 mg/dL
  TP: 5.5 g/dL
  gamma-GTP: 1 IU/L
9 h
  TERMINAL_BW: 200.1 g
  APTT: 19.8 s
  Bas: 0%
  Eos: 1%
  Fbg: 303.6 mg/dL
  Hb: 13.4 g/dL
  Ht: 39%
  Lym: 78.2%
  MCH: 20.9 pg
  MCHC: 34.4%
  MCV: 60.7 fL
  Mono: 2.6%
  Neu: 17.8%
  PT: 16.3 s
  Plat: 115.2 x10_4/uL
  RBC: 643 x10_4/ul
  Ret: 7.8%
  WBC: 92.4 x10_2/uL
  KIDNEY_L: 0.9 g
  KIDNEY_R: 0.9 g
  KIDNEY_TOTAL: 1.8 g
  LIVER: 8.3 g
  A/G: 1.2
  ALP: 1371.2 IU/L
  ALT: 36 IU/L
  AST: 70.6 IU/L
  BUN: 12.4 mg/dL
  CRE: 0.1 mg/dL
  Ca: 10.6 mg/dL
  Cl: 107.8 meq/L
  DBIL: 0.002 mg/dL
  GLC: 181.6 mg/dL
  IP: 9.8 mg/dL
  K: 4.5 meq/L
  LDH: 253.4 IU/L
  Na: 141.6 meq/L
  PL: 134.4 mg/dL
  RALB: 2.9 g/dL
  TBIL: 0.012 mg/dL
  TC: 69.8 mg/dL
  TG: 97.8 mg/dL
  TP: 5.4 g/dL
  gamma-GTP: 1 IU/L
24 h
  TERMINAL_BW: 217.8 g
  APTT: 21.2 s
  Bas: 0%
  Eos: 1%
  Fbg: 292 mg/dL
  Hb: 13.6 g/dL
  Ht: 39.7%
  Lym: 80.8%
  MCH: 21.3 pg
  MCHC: 34.2%
  MCV: 62.4 fL
  Mono: 3%
  Neu: 14.4%
  PT: 16.2 s
  Plat: 113.1 x10_4/uL
  RBC: 636.6 x10_4/ul
  Ret: 7.5%
  WBC: 92.6 x10_2/uL
  KIDNEY_L: 1 g
  KIDNEY_R: 1 g
  KIDNEY_TOTAL: 1.9 g
  LIVER: 10 g
  A/G: 1.3
  ALP: 1864.4 IU/L
  ALT: 46.8 IU/L
  AST: 80 IU/L
  BUN: 15.6 mg/dL
  CRE: 0.1 mg/dL
  Ca: 10.8 mg/dL
  Cl: 107.8 meq/L
  DBIL: 0.002 mg/dL
  GLC: 197.4 mg/dL
  IP: 7.2 mg/dL
  K: 4.1 meq/L
  LDH: 293.2 IU/L
  Na: 141.6 meq/L
  PL: 146.8 mg/dL
  RALB: 3.1 g/dL
  TBIL: 0.032 mg/dL
  TC: 74.4 mg/dL
  TG: 107 mg/dL
  TP: 5.5 g/dL
  gamma-GTP: 1 IU/L
